Literature values, collected in patent US20090111747A1, “Anti-Diabetic or Anti-Hypertensive Dietary Supplement” (priority 2005, published 2009).
Ends that are not written are not given here.

Tested on: mammalian α-glucosidase
Settings: literature, Oki et al., 1999

Row | Substance | inhibitory effect on mammalian α-glucosidase
1 | Tyr-Tyr-Pro-Leu (YYPL; printed: Tyr-Tyr-Pro-Leu) | neither the hydrolysate nor the peptides had any significant inhibitory effect
2 | Val-Trp | neither the hydrolysate nor the peptides had any significant inhibitory effect

Tested on: rat intestinal α-glucosidase
Settings: literature, Inoue et al., 2000

Row | Substance | activity against rat intestinal α-glucosidase
3 | IISIGR | active against rat intestinal α-glucosidase
4 | Ile-Ile-Ser-Ile-Gly (IISIG; printed: Ile-Ile-Ser-Ile-Gly) | active against rat intestinal α-glucosidase
5 | VFIKAA | active against rat intestinal α-glucosidase
6 | VFIKAAA | active against rat intestinal α-glucosidase
7 | Val-Phe-Ile-Lys-Ala (VFIKA; printed: Val-Phe-Ile-Lys-Ala) | active against rat intestinal α-glucosidase
